Experiments:
Apolipoprotein L1 = Apolipoprotein L1 (Homo sapiens, UniProt O14791); assay: Inhibition of APOL1 G1 variant in human HEK293-T-REx cells measured by Thallium assay; format: cell-based
[1] = tested on: Trypanosoma brucei brucei; assay: Antitrypanosomal activity against Trypanosoma brucei brucei assessed as trypanosome lysis using recombinant APOL1 protein G1 variant and measured by Alamar blue based fluorescene assay; format: functional, organism-based

Row | Compound | IC50 (Apolipoprotein L1) [nM] | IC50 [1] [nM]
1 | O=C(CCc1c(-c2ccc(F)cc2)[nH]c2c(F)cc(F)cc12)N[C@@H]1C(=O)NC[C@@H]1O | < 250 | < 250
2 | N#Cc1ccc(-c2[nH]c3c(F)cc(F)cc3c2CCC(=O)N[C@H]2CCNC2=O)cc1 | < 250 | < 250
3 | N#Cc1cc(F)cc2c(CCC(=O)N[C@@H]3C(=O)NC[C@H]3O)c(-c3ccc(F)cc3)[nH]c12 | < 250 | < 250
4 | Cc1cccc2c(CCC(=O)N[C@@H]3C(=O)NC[C@H]3O)c(-c3ccccc3)[nH]c12 | < 250 | 
5 | O=C(CCc1c(-c2ccc(F)cc2)[nH]c2c(F)c(F)c(F)cc12)N[C@@H]1C(=O)NC[C@H]1O | < 250 | 
6 | O=C(CCc1c(-c2ccc(F)cc2)[nH]c2c(F)cc(Br)cc12)N[C@H]1CCNC1=O | < 250 | < 250
7 | COc1cc(F)cc2c(CCC(=O)N[C@H]3CCNC3=O)c(-c3ccc(F)cc3)[nH]c12 | 250 | 
8 | O=C(CCc1c(-c2ccc(F)cc2)[nH]c2c(F)cc(Cl)cc12)N[C@H]1CCNC1=O | < 250 | 
9 | O=C(CCc1c(-c2ccccc2)[nH]c2c(F)cc(F)cc12)N[C@@H]1C(=O)NC[C@H]1O | < 250 | < 250
10 | COc1ccc2[nH]c(-c3ccc(F)cc3)c(CCC(=O)N[C@H]3CCNC3=O)c2c1 | > 1000 | 
11 | O=C(CCc1c(-c2ccccc2)[nH]c2c(F)cccc12)N[C@H]1CCNC1=O | 250 | 
12 | CC(CC(=O)N[C@H]1CCNC1=O)c1c(-c2ccc(F)cc2)[nH]c2c(F)cc(F)cc12 (stereo not given in full) | > 1000 | 
13 | O=C(N[C@H]1CCNC1=O)[C@H](O)Cc1c(-c2ccccc2)[nH]c2c(F)cc(F)cc12 | > 1000 | 
14 | O=C(CCc1c(-c2ccc(F)cc2)[nH]c2cc(O)ccc12)N[C@H]1C(=O)NC[C@@H]1O | > 1000 | 
15 | O=C(CCc1c(-c2ccccc2)[nH]c2c(C3=CCOC3)cccc12)N[C@@H]1C(=O)NC[C@H]1O | > 1000 | 
16 | CC(CC(=O)N[C@@H]1C(=O)NC[C@H]1O)c1c(-c2ccc(F)cc2)[nH]c2c(F)cc(F)cc12 (stereo not given in full) | > 1000 | 
17 | C[C@@H](Cc1c(-c2ccc(F)cc2)[nH]c2c(F)cc(F)cc12)C(=O)N[C@@H]1C(=O)NC[C@H]1O | 250 | 
18 | O=C(CSc1c(-c2ccc(F)cc2)[nH]c2ccccc12)N[C@@H]1C(=O)NC[C@H]1O | < 250 | 
19 | O=C(CCc1c(-c2ccc(F)cc2)[nH]c2c(F)cc(F)cc12)N[C@H]1C(=O)NC[C@@H]1O | 250 | 
20 | O=C(CCc1c(-c2ccc(OC(F)F)cc2)[nH]c2ccccc12)N[C@@H]1C(=O)NC[C@H]1O | < 250 | 
21 | O=C(CCc1c(-c2ccc(F)cc2)[nH]c2c(F)cc(F)cc12)NC1CC2(CC2)NC1=O (stereo not given) | > 1000 | 

Row | Compound | IC50 (Apolipoprotein L1) [nM] | IC50 [1] [nM]
22 | O=C(CCc1c(-c2ccc(OC(F)F)cc2)[nH]c2c(F)cc(F)cc12)N[C@H]1CCNC1=O | < 250 | < 250
23 | O=C(CCc1c(-c2ccc(F)cc2)[nH]c2c(F)cc(F)cc12)N[C@H]1C[C@@H](CF)NC1=O | > 1000 | 
24 | COc1cc(F)cc2c(CCC(=O)N[C@@H]3C(=O)NC[C@H]3O)c(-c3ccc(F)cc3)[nH]c12 | < 250 | < 250
25 | O=C(CCc1c(-c2ccc(F)cc2)[nH]c2ccc(Cl)cc12)N[C@@H]1C(=O)NC[C@H]1O | < 250 | 
26 | Cc1c(F)ccc2c(CCC(=O)N[C@@H]3C(=O)NC[C@H]3O)c(-c3ccc(F)cc3)[nH]c12 | < 250 | 
27 | O=C(CCc1c(-c2ccc(F)cc2)[nH]c2c(F)cc(F)cc12)N[C@H]1C[C@H](CO)NC1=O | > 1000 | > 1000
28 | O=C(CCc1c(-c2ccc(F)cc2)[nH]c2cc(F)c(F)cc12)N[C@@H]1C(=O)NC[C@H]1O | < 250 | 
29 | O=C(N[C@@H]1C(=O)NC[C@H]1O)[C@H](O)Cc1c(-c2ccc(F)cc2)[nH]c2c(F)cc(F)cc12 | > 1000 | 
30 | O=C(CCc1c(-c2ccc(F)cc2)[nH]c2c(F)c(F)ccc12)N[C@H]1CCNC1=O | 250 | 
31 | Cc1cc(F)ccc1-c1[nH]c2ccccc2c1CCC(=O)N[C@@H]1C(=O)NC[C@H]1O | 250 | 
32 | Cc1c(F)ccc2c(CCC(=O)N[C@@H]3C(=O)NC[C@H]3O)c(-c3ccccc3)[nH]c12 | < 250 | 
33 | CC(C)c1cccc2c(CCC(=O)N[C@@H]3C(=O)NC[C@H]3O)c(-c3ccccc3)[nH]c12 | 250 | 
34 | C=C(C)c1cccc2c(CCC(=O)N[C@@H]3C(=O)NC[C@H]3O)c(-c3ccccc3)[nH]c12 | 250 | 
35 | CC1C[C@H](NC(=O)CCc2c(-c3ccc(F)cc3)[nH]c3c(F)cc(F)cc23)C(=O)N1 (stereo not given in full) | 250 | 250
36 | O=C(CCc1c(-c2ccc(F)cc2)[nH]c2c(Cl)cc(F)cc12)N[C@H]1CCNC1=O | < 250 | 
37 | C[C@H]1CNC(=O)[C@H]1NC(=O)CCc1c(-c2ccc(F)cc2)[nH]c2c(F)cc(F)cc12 | > 1000 | 
38 | Cc1ccc2[nH]c(-c3ccc(Br)cc3)c(CCC(=O)N[C@H]3CCNC3=O)c2c1 | < 250 | < 250
39 | O=C(CCc1c(-c2ccc(F)cc2)[nH]c2c(F)cc(F)cc12)N[C@@H]1CCNC1=O | 250 | < 250
40 | C[C@@H](Cc1c(-c2ccc(F)cc2)[nH]c2c(F)cc(F)cc12)C(=O)N[C@H]1CCNC1=O | > 1000 | 
41 | O=C(CCc1c(-c2ccccc2)[nH]c2c(F)cc(F)cc12)N[C@H]1CCNC1=O | < 250 | 
42 | O=C(CCc1c(-c2ccccc2)[nH]c2c(Cl)cc(F)cc12)N[C@@H]1C(=O)NC[C@H]1O | < 250 | 

Row | Compound | IC50 (Apolipoprotein L1) [nM] | IC50 [1] [nM]
43 | Cc1ccc(-c2[nH]c3c(F)cc(F)cc3c2CCC(=O)N[C@@H]2C(=O)NC[C@H]2O)cc1 | < 250 | 
44 | O=C(CCc1c(-c2ccccc2)[nH]c2c(C3CC3)cccc12)N[C@@H]1C(=O)NC[C@H]1O | < 250 | 
45 | O=C(CCc1c(-c2ccc(F)cc2)[nH]c2c(F)cc(F)cc12)N[C@H]1C[C@@H](CO)NC1=O | > 1000 | > 1000
46 | O=C(CCc1c(-c2ccc(F)cc2)[nH]c2c(F)cc(Cl)cc12)N[C@@H]1C(=O)NC[C@H]1O | < 250 | < 250
47 | O=C1C[C@H](NC(=O)CCc2c(-c3ccc(F)cc3)[nH]c3c(F)cc(F)cc23)C(=O)N1 | 250 | 250
48 | N#Cc1cc(F)c2[nH]c(-c3ccc(F)cc3)c(CCC(=O)N[C@H]3CCNC3=O)c2c1 | > 1000 | > 1000
49 | O=C(CCc1c(-c2ccc(F)cc2)[nH]c2ccccc12)N[C@H]1C(=O)NC[C@H]1O | 250 | 
50 | O=C(CCc1c(-c2ccccc2)[nH]c2c(Cl)cccc12)N[C@@H]1C(=O)NC[C@H]1O | < 250 | 
51 | Cc1cccc2c(CCC(=O)N[C@@H]3C(=O)NC[C@H]3O)c(-c3ccc(F)cc3)[nH]c12 | < 250 | 
52 | Cc1ccc(-c2[nH]c3c(F)cc(F)cc3c2CCC(=O)N[C@H]2CCNC2=O)cc1 | < 250 | 
53 | O=C(CCc1c(-c2ccc(F)cc2)[nH]c2c(F)cc(OC(F)F)cc12)N[C@@H]1C(=O)NC[C@H]1O | < 250 | 
54 | COc1cccc2c(CCC(=O)N[C@H]3CCNC3=O)c(-c3ccc(F)cc3)[nH]c12 | > 1000 | 
55 | O=C(CCc1c(-c2ccc(F)cc2)[nH]c2ccc(F)cc12)N[C@H]1CCNC1=O | < 250 | < 250
56 | O=C(CCc1c(-c2ccc(F)cc2)[nH]c2c(F)cc(F)cc12)N[C@H]1C[C@H](CF)NC1=O | > 1000 | 
57 | O=C(CCc1c(-c2ccc(F)cc2)[nH]c2c(F)cc(F)cc12)N[C@H]1CCNC1=O | < 250 | < 250
58 | O=C(CCc1c(-c2ccc(F)cc2)[nH]c2ccccc12)N[C@H]1C(=O)NC[C@@H]1O | > 1000 | 
59 | O=C(CCc1c(-c2ccc(F)cc2)[nH]c2c(Cl)cc(F)cc12)N[C@@H]1C(=O)NC[C@H]1O | < 250 | < 250
60 | O=C1NC[C@@H](O)[C@@H]1NC(=O)[C@@H](O)Cc1c(-c2ccc(F)cc2)[nH]c2c(F)cc(F)cc12 | > 1000 | 
61 | O=C1C[C@@H](NC(=O)CCc2c(-c3ccc(F)cc3)[nH]c3c(F)cc(F)cc23)C(=O)N1 | 250 | 250
62 | O=C(CCc1c(-c2ccccc2)[nH]c2ccc(Cl)cc12)N[C@@H]1C(=O)NC[C@H]1O | < 250 | < 250
63 | C=Cc1cccc2c(CCC(=O)N[C@@H]3C(=O)NC[C@H]3O)c(-c3ccccc3)[nH]c12 | < 250 | 

Row | Compound | IC50 (Apolipoprotein L1) [nM] | IC50 [1] [nM]
64 | O=C(CCc1c(-c2ccc(F)cc2)[nH]c2ccccc12)N[C@@H]1C(=O)NC[C@@H]1O | > 1000 | 
65 | O=C(CCc1c(-c2ccccc2)[nH]c2c(C3CCOC3)cccc12)N[C@@H]1C(=O)NC[C@H]1O (stereo not given in full) | 250 | 
66 | O=C(CCc1c(-c2ccccc2)[nH]c2c(C(F)(F)F)cc(F)cc12)N[C@@H]1C(=O)NC[C@H]1O | < 250 | 
67 | CC(=O)O[C@@H]1CNC(=O)[C@H]1NC(=O)CCc1c(-c2ccc(F)cc2)[nH]c2c(F)cc(F)cc12 | > 1000 | 
68 | O=C(CCc1c(-c2ccc(F)cc2)[nH]c2c(F)cc(Cl)cc12)N[C@@H]1CCNC1=O | 250 | 
69 | O=C(CCc1c(-c2ccc(F)cc2)[nH]c2c(F)cc(F)cc12)N[C@H]1C(=O)NC[C@H]1O | 250 | 
70 | O=C(CCc1c(-c2ccc(Cl)cc2)[nH]c2c(Cl)cccc12)N[C@@H]1C(=O)NC[C@H]1O | < 250 | 
71 | Cc1cc(F)cc2c(CCC(=O)N[C@@H]3C(=O)NC[C@H]3O)c(-c3ccc(F)cc3)[nH]c12 | < 250 | < 250
72 | CC(C)(O)c1cccc2c(CCC(=O)N[C@@H]3C(=O)NC[C@H]3O)c(-c3ccccc3)[nH]c12 | 250 | 
73 | Cc1cc(F)c2[nH]c(-c3ccc(F)cc3)c(CCC(=O)N[C@@H]3C(=O)NC[C@H]3O)c2c1 | < 250 | < 250
74 | CC1(NC(=O)CCc2c(-c3ccc(F)cc3)[nH]c3c(F)cc(F)cc23)CCNC1=O (stereo not given) | 250 | < 250
75 | Cc1cc(F)cc2c(CCC(=O)N[C@H]3CCNC3=O)c(-c3ccc(F)cc3)[nH]c12 | < 250 | 
76 | Cc1cc(F)c2[nH]c(-c3ccc(F)cc3)c(CCC(=O)N[C@H]3CCNC3=O)c2c1 | 250 | 
77 | O=C(CCc1c(-c2ccc(F)cc2)[nH]c2c(C(F)F)cc(F)cc12)N[C@@H]1C(=O)NC[C@H]1O | < 250 | 
78 | Cc1ccc(-c2[nH]c3c(F)cc(F)cc3c2CCC(=O)N[C@@H]2CCNC2=O)cc1 | < 250 | 
79 | N#Cc1cccc(-c2[nH]c3ccc(F)cc3c2CCC(=O)N[C@H]2CCNC2=O)c1 | > 1000 | 
80 | O=C(CCc1c(-c2ccc(F)cc2)[nH]c2ccc(F)cc12)N[C@@H]1C(=O)NC[C@H]1O | < 250 | < 250
81 | O=C(CCc1c(-c2ccc(F)cc2)[nH]c2c(C(F)(F)F)cccc12)N[C@@H]1C(=O)NC[C@H]1O | < 250 | 
